Measured values reported in US9920089B2, “Process for producing a solid form of abiraterone acetate” (ZACH SYSTEM, priority 2013, dated 2018).

Key:
[1] = cited from earlier work
[2] = target: T1, human cytochrome P45017α (Homo sapiens, UniProt P05093); conditions: qualitative statement; cited from earlier work
T1 sequence (P05093 1-508): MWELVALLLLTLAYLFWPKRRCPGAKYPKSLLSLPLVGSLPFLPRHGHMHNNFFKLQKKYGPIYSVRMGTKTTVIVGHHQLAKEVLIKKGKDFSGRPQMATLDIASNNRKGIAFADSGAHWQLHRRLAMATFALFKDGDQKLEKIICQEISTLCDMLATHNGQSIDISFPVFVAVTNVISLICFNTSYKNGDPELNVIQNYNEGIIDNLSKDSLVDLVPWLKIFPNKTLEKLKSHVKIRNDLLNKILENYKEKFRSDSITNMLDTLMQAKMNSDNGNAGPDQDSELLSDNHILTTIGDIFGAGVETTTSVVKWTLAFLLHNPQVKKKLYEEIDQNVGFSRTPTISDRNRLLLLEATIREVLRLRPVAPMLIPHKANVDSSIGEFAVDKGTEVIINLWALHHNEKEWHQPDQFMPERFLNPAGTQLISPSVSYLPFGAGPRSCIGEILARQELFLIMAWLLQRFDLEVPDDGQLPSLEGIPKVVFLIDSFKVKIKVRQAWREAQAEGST

[3] = Particle size distribution by laser diffraction, dry powder method (Malvern Mastersizer 2000); type: physicochemical; conditions: milled dried product after spherical agglomeration
Experimental: PSD was determined by laser diffraction-dry powder method with a Malvern Mastersizer 2000 device.

Row | Measured Particle Size Distribution D(0.5) [3] | SMILES | other results
1 |  | CC(=O)O[C@H]1CC[C@@]2(C)C(=CC[C@@H]3[C@@H]2CC[C@]2(C)C(c4cccnc4)=CC[C@@H]32)C1 [Abiraterone acetate, (3β)-17-(3-pyridinyl)-androsta-5,16-dien-3-yl acetate] | Solubility in 0.1N HCl solution ([1]; 0.1N HCl solution): very slightly soluble; Solubility in aqueous media ([1]; aqueous media, pH range 2.0 to 12.9): practically insoluble; Solubility in organic solvents ([1]; organic solvents): soluble to freely soluble
2 |  | C[C@]12CC[C@H](O)CC1=CC[C@@H]1[C@@H]2CC[C@]2(C)C(c3cccnc3)=CC[C@@H]12 [Abiraterone, 17-(3-pyridyl)-androsta-5,16-dien-3β-ol] | Inhibition of human cytochrome P45017α [2]: potent inhibitor
3 | 4.9 μm | CC(=O)O[C@H]1CC[C@@]2(C)C(=CC[C@@H]3[C@@H]2CC[C@]2(C)C(c4cccnc4)=CC[C@@H]32)C1 [Example 1, abiraterone acetate] | 
4 | 10.7 μm | CC(=O)O[C@H]1CC[C@@]2(C)C(=CC[C@@H]3[C@@H]2CC[C@]2(C)C(c4cccnc4)=CC[C@@H]32)C1 [Example 2, abiraterone acetate] | 
5 | 3.7 μm | CC(=O)O[C@H]1CC[C@@]2(C)C(=CC[C@@H]3[C@@H]2CC[C@]2(C)C(c4cccnc4)=CC[C@@H]32)C1 [Example 3, abiraterone acetate] | 
6 | 6.5 μm | CC(=O)O[C@H]1CC[C@@]2(C)C(=CC[C@@H]3[C@@H]2CC[C@]2(C)C(c4cccnc4)=CC[C@@H]32)C1 [Example 4, abiraterone acetate] | 
